Data as given in PubChem BioAssay (NCI).
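How tested: cells in 96-well plates exposed to compound for 48 hours at five concentrations. TGI: total growth inhibition.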

What was measured:
Test in all cases: NCI-60 cell line screen, 48 h
SNB-75 CNS = system: SNB-75 CNS
NCI/ADR-RES ovarian = system: NCI/ADR-RES ovarian
K-562 leukemia = system: K-562 leukemia
HS 578T breast = system: HS 578T breast
SK-MEL-2 melanoma = system: SK-MEL-2 melanoma
SK-OV-3 ovarian = system: SK-OV-3 ovarian
RXF 393 renal = system: RXF 393 renal
UACC-257 melanoma = system: UACC-257 melanoma
NCI-H460 lung = system: NCI-H460 lung
LOX IMVI melanoma = system: LOX IMVI melanoma
HT29 colon = system: HT29 colon
TK-10 renal = system: TK-10 renal
M14 melanoma = system: M14 melanoma
CAKI-1 renal = system: CAKI-1 renal
NCI-H23 lung = system: NCI-H23 lung
HCT-15 colon = system: HCT-15 colon
SF-295 CNS = system: SF-295 CNS
SW-620 colon = system: SW-620 colon
SR leukemia = system: SR leukemia
MOLT-4 leukemia = system: MOLT-4 leukemia
OVCAR-8 ovarian = system: OVCAR-8 ovarian
UACC-62 melanoma = system: UACC-62 melanoma
MDA-MB-231 breast = system: MDA-MB-231 breast
786-0 renal = system: 786-0 renal
PC-3 prostate = system: PC-3 prostate
OVCAR-4 ovarian = system: OVCAR-4 ovarian
SK-MEL-28 melanoma = system: SK-MEL-28 melanoma
MCF7 breast = system: MCF7 breast
DU-145 prostate = system: DU-145 prostate
ACHN renal = system: ACHN renal
HCT-116 colon = system: HCT-116 colon
SNB-19 CNS = system: SNB-19 CNS
U251 CNS = system: U251 CNS
UO-31 renal = system: UO-31 renal
SN12C renal = system: SN12C renal
MDA-N = system: MDA-N
CCRF-CEM leukemia = system: CCRF-CEM leukemia
KM12 colon = system: KM12 colon
RPMI-8226 leukemia = system: RPMI-8226 leukemia
A549 NSCLC = system: A549 NSCLC
HCC-2998 colon = system: HCC-2998 colon
SF-268 CNS = system: SF-268 CNS
EKVX NSCLC = system: EKVX NSCLC
SK-MEL-5 melanoma = system: SK-MEL-5 melanoma
MDA-MB-435 = system: MDA-MB-435
HOP-92 NSCLC = system: HOP-92 NSCLC
OVCAR-5 ovarian = system: OVCAR-5 ovarian
NCI-H522 lung = system: NCI-H522 lung
A498 renal = system: A498 renal
COLO 205 colon = system: COLO 205 colon
HL-60(TB) leukemia = system: HL-60(TB) leukemia
BT-549 breast = system: BT-549 breast
MALME-3M melanoma = system: MALME-3M melanoma
NCI-H226 lung = system: NCI-H226 lung
HOP-62 NSCLC = system: HOP-62 NSCLC
IGROV1 ovarian = system: IGROV1 ovarian
T-47D breast = system: T-47D breast
OVCAR-3 ovarian = system: OVCAR-3 ovarian
SF-539 CNS = system: SF-539 CNS

Measured: TGI

NC(=O)C(N)CC12CC3CC(CC(C3)C1)C2 (configuration not stated)
34.7 µM: U251 CNS
47.3 µM: RPMI-8226 leukemia
49.3 µM: HCC-2998 colon
41.7 µM: MDA-MB-231 breast
41.2 µM: SN12C renal
42.6 µM: HS 578T breast
47.8 µM: KM12 colon
33.7 µM: DU-145 prostate
55 µM: SK-MEL-2 melanoma
30.7 µM: HCT-116 colon
28.3 µM: UACC-62 melanoma
72.6 µM: HT29 colon
43.5 µM: SR leukemia
65.4 µM: OVCAR-8 ovarian
51.7 µM: NCI-H23 lung
44.4 µM: NCI-H522 lung
54.9 µM: SF-295 CNS
30.4 µM: HOP-92 NSCLC
44.9 µM: MCF7 breast
28.5 µM: SK-MEL-5 melanoma
40.7 µM: 786-0 renal
44.2 µM: UO-31 renal
63.7 µM: CCRF-CEM leukemia
55.4 µM: SK-MEL-28 melanoma
58.1 µM: MOLT-4 leukemia
76.7 µM: UACC-257 melanoma
> 100 µM: SNB-75 CNS | K-562 leukemia | SK-OV-3 ovarian | NCI-H460 lung | CAKI-1 renal | HCT-15 colon | SW-620 colon | ACHN renal | A549 NSCLC
42.4 µM: OVCAR-5 ovarian
85.3 µM: TK-10 renal
54.6 µM: SNB-19 CNS
92.5 µM: SF-268 CNS
44 µM: MDA-MB-435
51.9 µM: PC-3 prostate
91.7 µM: NCI/ADR-RES ovarian
64.7 µM: OVCAR-4 ovarian
37.4 µM: M14 melanoma
29.9 µM: LOX IMVI melanoma
32.5 µM: RXF 393 renal
28.7 µM: MDA-N
97.5 µM: EKVX NSCLC

C[C@]12CCC3c4ccc(O)cc4CC[C@H]3C1CC(=O)NC2=O (some centres not stated)
not listed: SNB-75 CNS | HS 578T breast | UACC-62 melanoma | EKVX NSCLC | NCI-H522 lung
> 10 µM: all other assays above

CC1CC(NN)=Nc2ccccc2N1 (configuration not stated)
not listed: SNB-75 CNS | RXF 393 renal | LOX IMVI melanoma | SR leukemia | MCF7 breast | HCC-2998 colon | HOP-92 NSCLC | T-47D breast | SF-539 CNS
> 100 µM: all other assays above
